In ChEMBL document CHEMBL5465560, “Selectivity Literature for EUbOPEN Chemogenomic Library” (2024):

Columns and labels:
[1] = biological target: RAC-alpha serine/threonine-protein kinase (Homo sapiens, UniProt P31749); experiment: Selectivity interaction (KinomeScan (DiscoverX)) EUB0000595a AKT1; conditions: at 10 µM
[2] = biological target: Tyrosine-protein kinase JAK1 (Homo sapiens, UniProt P23458); experiment: Selectivity interaction (NanoBRET assay (HEK293T cells)) EUB0001559a JAK1; assay type: cell-based, HEK-293T
[3] = biological target: T1, Mitogen-activated protein kinase 12 (Homo sapiens) (UniProt P53778); experiment: Selectivity interaction (KinomeScan (DiscoverX)) EUB0000666a MAPK12; conditions: at 10 µM
T1 sequence (whole entry): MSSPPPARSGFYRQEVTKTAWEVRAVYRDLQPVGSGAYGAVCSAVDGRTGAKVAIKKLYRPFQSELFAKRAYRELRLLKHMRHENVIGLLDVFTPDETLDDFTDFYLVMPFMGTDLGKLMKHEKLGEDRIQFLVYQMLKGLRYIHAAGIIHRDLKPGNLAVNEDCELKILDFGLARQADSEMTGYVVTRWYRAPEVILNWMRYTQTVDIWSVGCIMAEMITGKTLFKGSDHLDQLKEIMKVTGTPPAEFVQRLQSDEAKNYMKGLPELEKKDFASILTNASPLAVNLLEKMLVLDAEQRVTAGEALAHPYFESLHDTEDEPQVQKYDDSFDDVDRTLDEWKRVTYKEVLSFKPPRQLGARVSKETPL

[4] = biological target: Mitogen-activated protein kinase 9 (Homo sapiens, UniProt P45984); experiment: Selectivity interaction (Kinase screening (Upstate/Millipore)) EUB0000604a MAPK9
[5] = biological target: RAC-gamma serine/threonine-protein kinase (Homo sapiens, UniProt Q9Y243); experiment: Selectivity interaction (Kinase screening (Nanosyn)) EUB0000604a AKT3
[6] = biological target: Protein-tyrosine kinase 2-beta (Homo sapiens) (UniProt Q14289); experiment: Selectivity interaction (KinomeScan (DiscoverX)) EUB0001049a PTK2B; conditions: at 1 µM
[7] = biological target: Cyclin-dependent kinase 5/CDK5 activator 1 (Homo sapiens, UniProt Q00535)
[8] = biological target: T2, Phosphorylase b kinase gamma catalytic chain, liver/testis isoform (Homo sapiens) (UniProt P15735); experiment: Selectivity interaction (KinomeScan (DiscoverX)) EUB0001619a PHKG2; conditions: at 1 µM
T2 sequence (whole entry): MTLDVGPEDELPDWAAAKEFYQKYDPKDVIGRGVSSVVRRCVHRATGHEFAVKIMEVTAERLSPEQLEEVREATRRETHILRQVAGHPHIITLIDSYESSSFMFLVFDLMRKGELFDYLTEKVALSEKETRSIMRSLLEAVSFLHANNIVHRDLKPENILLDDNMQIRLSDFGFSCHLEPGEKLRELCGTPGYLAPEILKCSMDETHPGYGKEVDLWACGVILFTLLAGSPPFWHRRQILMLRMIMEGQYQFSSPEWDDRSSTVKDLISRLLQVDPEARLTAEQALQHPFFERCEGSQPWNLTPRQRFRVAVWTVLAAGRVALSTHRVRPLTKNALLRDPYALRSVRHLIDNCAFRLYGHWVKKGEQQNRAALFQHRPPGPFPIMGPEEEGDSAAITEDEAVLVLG

[9] = biological target: Serine/threonine-protein kinase SIK3 (Homo sapiens) (UniProt Q9Y2K2); experiment: Selectivity interaction (ActivX KiNativ screen (kinase selectivity in THP-1 cell lysates)) EUB0000639a SIK3; assay type: subcellular; conditions: lysate
[10] = biological target: RAC-beta serine/threonine-protein kinase (Homo sapiens) (UniProt P31751); experiment: Selectivity interaction (KinomeScan (DiscoverX)) EUB0000655a AKT2; conditions: at 10 µM
[11] = biological target: T3, Cyclin-dependent kinase-like 5 (Homo sapiens) (UniProt O76039); experiment: Selectivity interaction (Ambit KINOMEscan and KiNATiv profiling in Jurkat cells) EUB0000090b CDKL5; assay type: cell-based; conditions: at 1 µM
T3 sequence (whole entry): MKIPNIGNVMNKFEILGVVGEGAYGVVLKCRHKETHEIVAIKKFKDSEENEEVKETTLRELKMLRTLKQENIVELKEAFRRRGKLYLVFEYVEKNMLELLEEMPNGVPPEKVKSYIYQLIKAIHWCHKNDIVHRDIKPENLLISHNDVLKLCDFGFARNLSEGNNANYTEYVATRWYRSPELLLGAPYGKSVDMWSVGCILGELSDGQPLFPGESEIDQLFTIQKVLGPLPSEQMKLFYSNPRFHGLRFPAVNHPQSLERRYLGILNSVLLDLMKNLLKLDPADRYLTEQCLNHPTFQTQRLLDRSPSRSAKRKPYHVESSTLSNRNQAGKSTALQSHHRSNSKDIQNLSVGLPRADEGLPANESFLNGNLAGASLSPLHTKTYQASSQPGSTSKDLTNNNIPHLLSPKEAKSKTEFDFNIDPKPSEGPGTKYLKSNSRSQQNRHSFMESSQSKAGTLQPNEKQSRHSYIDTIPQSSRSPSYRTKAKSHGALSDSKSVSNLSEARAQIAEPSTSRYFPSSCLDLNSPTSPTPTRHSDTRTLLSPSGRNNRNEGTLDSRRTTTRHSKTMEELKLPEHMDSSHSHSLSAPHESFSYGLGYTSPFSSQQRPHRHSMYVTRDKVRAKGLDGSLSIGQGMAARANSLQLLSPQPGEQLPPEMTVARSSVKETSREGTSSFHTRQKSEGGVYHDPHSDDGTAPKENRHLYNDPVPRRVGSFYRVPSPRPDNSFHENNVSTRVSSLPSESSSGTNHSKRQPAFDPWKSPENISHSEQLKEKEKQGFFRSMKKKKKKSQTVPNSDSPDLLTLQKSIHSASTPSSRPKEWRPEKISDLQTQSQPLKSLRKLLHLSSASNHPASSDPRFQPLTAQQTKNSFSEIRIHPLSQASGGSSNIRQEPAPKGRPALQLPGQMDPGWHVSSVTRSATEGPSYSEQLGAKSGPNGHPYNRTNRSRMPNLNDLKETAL

Serine/threonine-protein kinase SIK3 (Homo sapiens), sequence (Q9Y2K2 whole entry, looked up): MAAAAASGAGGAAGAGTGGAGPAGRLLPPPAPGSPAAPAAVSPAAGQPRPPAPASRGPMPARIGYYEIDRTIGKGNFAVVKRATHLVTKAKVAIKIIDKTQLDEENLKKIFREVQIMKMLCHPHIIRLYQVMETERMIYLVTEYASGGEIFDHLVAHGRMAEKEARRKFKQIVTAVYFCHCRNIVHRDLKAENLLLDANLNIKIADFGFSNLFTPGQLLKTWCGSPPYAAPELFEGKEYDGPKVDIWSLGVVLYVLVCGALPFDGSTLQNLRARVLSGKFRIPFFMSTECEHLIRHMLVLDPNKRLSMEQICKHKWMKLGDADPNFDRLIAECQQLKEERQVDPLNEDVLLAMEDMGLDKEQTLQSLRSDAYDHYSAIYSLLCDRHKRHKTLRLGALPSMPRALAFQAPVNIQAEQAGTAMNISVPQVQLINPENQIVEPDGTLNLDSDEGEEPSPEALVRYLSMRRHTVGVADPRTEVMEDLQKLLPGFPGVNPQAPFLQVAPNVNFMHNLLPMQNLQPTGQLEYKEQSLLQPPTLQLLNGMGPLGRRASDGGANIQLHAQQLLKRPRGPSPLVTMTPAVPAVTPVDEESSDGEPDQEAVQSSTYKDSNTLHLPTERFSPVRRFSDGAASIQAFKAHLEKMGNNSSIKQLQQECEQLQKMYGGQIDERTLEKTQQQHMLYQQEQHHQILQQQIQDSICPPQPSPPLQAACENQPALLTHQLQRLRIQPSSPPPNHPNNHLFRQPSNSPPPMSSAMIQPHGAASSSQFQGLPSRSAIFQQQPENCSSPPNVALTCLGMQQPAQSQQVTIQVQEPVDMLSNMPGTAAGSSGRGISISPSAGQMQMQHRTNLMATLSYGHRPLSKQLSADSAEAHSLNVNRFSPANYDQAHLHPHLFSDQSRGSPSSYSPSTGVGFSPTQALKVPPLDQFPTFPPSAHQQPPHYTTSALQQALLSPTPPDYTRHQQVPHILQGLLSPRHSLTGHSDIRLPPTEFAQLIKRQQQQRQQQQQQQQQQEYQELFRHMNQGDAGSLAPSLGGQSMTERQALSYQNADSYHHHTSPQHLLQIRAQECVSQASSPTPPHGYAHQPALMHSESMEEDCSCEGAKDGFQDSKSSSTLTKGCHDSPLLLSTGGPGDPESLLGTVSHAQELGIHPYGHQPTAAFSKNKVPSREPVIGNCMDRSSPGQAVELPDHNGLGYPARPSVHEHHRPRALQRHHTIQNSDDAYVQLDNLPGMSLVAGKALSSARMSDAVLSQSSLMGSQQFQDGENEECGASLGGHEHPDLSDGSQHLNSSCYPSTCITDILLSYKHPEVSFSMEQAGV
RAC-beta serine/threonine-protein kinase (Homo sapiens), sequence (P31751 whole entry): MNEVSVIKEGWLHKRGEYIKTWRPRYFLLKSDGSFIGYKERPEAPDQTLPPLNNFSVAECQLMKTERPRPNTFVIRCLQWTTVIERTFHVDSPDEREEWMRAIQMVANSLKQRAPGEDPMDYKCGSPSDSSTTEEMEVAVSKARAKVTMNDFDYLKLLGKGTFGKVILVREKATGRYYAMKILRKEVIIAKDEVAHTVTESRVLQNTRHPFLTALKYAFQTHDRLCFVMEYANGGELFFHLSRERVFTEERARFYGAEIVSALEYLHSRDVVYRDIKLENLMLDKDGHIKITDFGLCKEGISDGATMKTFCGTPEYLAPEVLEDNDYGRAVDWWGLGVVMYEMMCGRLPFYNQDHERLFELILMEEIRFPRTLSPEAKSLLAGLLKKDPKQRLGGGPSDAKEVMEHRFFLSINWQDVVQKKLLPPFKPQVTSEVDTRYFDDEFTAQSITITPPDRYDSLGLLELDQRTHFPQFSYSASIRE
RAC-alpha serine/threonine-protein kinase, sequence (P31749 whole entry): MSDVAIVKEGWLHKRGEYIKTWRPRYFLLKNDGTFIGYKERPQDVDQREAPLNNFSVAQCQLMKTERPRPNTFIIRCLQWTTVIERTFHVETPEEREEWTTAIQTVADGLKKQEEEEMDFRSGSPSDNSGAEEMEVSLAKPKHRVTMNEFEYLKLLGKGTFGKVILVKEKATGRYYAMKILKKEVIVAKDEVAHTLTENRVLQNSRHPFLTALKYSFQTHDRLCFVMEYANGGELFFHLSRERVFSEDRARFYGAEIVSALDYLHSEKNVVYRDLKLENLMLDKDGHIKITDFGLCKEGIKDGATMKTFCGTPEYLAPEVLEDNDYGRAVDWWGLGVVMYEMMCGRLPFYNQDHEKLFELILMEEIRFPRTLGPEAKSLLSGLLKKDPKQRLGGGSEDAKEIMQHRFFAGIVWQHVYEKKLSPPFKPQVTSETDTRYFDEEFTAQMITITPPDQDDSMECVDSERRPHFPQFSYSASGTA
RAC-gamma serine/threonine-protein kinase, sequence (Q9Y243 whole entry): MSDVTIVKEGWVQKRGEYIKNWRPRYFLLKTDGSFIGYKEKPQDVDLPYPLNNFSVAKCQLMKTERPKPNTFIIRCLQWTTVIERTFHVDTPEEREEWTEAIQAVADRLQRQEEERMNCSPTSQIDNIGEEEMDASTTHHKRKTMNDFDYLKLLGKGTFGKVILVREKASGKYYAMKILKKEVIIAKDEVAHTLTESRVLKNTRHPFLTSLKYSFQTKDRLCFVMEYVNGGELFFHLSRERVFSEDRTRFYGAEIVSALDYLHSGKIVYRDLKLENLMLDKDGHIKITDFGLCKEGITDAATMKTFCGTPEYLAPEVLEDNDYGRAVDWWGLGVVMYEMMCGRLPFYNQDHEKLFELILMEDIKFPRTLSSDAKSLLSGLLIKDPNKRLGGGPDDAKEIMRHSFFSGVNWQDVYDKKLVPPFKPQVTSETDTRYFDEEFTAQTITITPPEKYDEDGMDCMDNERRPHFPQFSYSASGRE
Mitogen-activated protein kinase 9, sequence (P45984 whole entry, looked up): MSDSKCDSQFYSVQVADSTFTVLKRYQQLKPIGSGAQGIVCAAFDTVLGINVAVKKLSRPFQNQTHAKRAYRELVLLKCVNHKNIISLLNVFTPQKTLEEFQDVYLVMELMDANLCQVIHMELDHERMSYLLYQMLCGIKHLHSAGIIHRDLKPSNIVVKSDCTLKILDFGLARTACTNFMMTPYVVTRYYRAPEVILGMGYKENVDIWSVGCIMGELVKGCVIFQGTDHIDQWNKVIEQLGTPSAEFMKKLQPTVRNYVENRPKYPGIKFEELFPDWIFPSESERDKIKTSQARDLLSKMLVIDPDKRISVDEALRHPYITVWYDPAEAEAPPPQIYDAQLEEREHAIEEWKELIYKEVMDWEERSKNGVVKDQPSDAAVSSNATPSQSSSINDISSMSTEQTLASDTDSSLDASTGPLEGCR
Cyclin-dependent kinase 5/CDK5 activator 1, sequence (Q00535 whole entry, canonical isoform): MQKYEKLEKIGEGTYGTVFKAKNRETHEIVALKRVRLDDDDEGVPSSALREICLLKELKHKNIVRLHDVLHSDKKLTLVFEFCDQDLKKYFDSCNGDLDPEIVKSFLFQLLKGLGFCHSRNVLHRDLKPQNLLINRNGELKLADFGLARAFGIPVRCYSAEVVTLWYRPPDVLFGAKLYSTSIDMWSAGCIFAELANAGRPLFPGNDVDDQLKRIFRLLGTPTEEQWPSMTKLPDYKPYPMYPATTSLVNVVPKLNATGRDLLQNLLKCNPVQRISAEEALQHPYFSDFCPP
Cyclin-dependent kinase 5/CDK5 activator 1, sequence (Q15078 whole entry, further chain, canonical isoform): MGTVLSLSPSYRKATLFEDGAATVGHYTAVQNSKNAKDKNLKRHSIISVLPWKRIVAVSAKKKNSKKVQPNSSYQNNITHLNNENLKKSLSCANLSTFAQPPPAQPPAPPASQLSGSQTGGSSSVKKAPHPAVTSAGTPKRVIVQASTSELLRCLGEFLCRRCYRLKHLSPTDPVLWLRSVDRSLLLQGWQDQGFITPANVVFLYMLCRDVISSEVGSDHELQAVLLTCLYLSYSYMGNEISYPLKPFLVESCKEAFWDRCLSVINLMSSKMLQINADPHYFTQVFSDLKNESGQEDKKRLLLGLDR
Protein-tyrosine kinase 2-beta (Homo sapiens), sequence (Q14289 whole entry, looked up): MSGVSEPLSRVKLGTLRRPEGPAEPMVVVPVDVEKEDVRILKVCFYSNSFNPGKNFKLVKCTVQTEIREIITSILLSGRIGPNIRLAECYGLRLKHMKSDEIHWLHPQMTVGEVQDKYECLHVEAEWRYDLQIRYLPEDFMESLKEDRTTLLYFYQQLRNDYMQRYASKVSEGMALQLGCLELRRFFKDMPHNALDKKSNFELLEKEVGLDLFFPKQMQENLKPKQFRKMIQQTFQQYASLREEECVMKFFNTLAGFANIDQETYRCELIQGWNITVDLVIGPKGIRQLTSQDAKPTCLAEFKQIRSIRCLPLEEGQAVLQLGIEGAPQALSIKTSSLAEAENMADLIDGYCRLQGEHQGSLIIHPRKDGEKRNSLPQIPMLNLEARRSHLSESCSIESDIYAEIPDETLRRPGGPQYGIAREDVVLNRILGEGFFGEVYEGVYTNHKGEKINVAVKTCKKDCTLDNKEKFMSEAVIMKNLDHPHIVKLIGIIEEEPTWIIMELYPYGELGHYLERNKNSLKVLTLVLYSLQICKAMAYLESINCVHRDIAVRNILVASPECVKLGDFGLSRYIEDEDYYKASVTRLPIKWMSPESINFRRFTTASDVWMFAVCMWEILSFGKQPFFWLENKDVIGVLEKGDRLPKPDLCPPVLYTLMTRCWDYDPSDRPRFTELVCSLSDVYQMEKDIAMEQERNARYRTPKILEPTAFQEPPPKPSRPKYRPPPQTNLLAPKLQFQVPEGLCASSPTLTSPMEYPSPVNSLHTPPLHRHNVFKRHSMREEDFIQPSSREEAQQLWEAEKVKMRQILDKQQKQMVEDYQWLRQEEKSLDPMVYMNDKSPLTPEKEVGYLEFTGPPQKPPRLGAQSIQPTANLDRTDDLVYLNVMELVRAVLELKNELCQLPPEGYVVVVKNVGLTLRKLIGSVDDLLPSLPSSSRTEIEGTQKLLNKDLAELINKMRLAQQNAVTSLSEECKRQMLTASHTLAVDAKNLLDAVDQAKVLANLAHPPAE

Work on `COCC(=O)NC/C=C/c1ccc2ncnc(Nc3ccc(Oc4ccc(C)nc4)c(C)c3)c2c1` [CP-724714] yielded a % of control [1] of 100%.

`CN(C(=O)c1cnn2cccnc12)c1cc2c(cc1N1CCOCC1)C(=O)N(C[C@@H](F)C(C)(C)O)C2` gave an EC50 [2] of over 50 µM.

Compound `O=C(NOC[C@H](O)CO)c1ccc(F)c(F)c1Nc1ccc(I)cc1F` has a % of control [3] of 100%.

Work on `Cc1cnc(Nc2ccc(F)cc2Cl)nc1-c1c[nH]c(C(=O)N[C@H](CO)c2cccc(Cl)c2)c1` yielded a % of inhibition [4] of 43% and a % of inhibition [5] of 0%.

In the case of `COc1cc(Nc2nc(C)cc(-c3cnn4nc(OC)ccc34)n2)cc(C(F)(F)F)c1`, the % of control [6] is reported as 99%.

Work on `CCc1cccc(CC)c1NC(=O)c1nn(C)c2c1CCc1cnc(Nc3ccc(C(=O)NC4CCN(C)CC4)cc3OC(F)(F)F)nc1-2` yielded an IC50 [7] of over 10 µM.

`N#Cc1cccc(-c2c[nH]c3ncnc(N4CCOCC4)c23)c1` gave a % of control [8] of 40%.

`CC[C@@H]1[C@H](F)C(=O)N[C@@H]1COc1nccc2cc(C(N)=O)c(OC)cc12` [ZIMLOVISERTIB] gave a % of inhibition ([9]; at 0.01 µM) of 5.4%, a % of inhibition ([9]; at 0.04 µM) of 3.4% and a % of inhibition ([9]; at 0.2 µM) of 15.7%. The % of inhibition ([9]; at 1 µM) was -1.4% and the % of inhibition ([9]; at 5 µM) was -7.8%.

`CN(C)CCOc1ccc(-c2nc(-c3ccncc3)c(-c3ccc4c(c3)CC/C4=N\O)[nH]2)cc1` gave a % of control [10] of 100%.

With `CN(C)C/C=C/C(=O)Nc1ccc(C(=O)N2CCCC(Nc3ncc(Cl)c(-c4c[nH]c5ccccc45)n3)C2)cc1` (stereo not given) the % of control [11] was 100%.
